According to PubChem BioAssay AID1845207 (Molecular Pharmacology Branch, DTP, NCI, 2023):

Tested on: NCI-H1876 tumor spheroid viability
Assay: Anticancer human tumor NCI-H1876 cell line growth inhibition;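 also: spheroids exposed to compounds for seven days before the viability read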;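 as to viability, T/C: percent of DMSO vehicle control viability so 100% = vehicle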
Details: spheroids with HUVEC and MSC; for IC50: curve of first compound; for viability, T/C: stronger effect = lower value
Method in brief: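 Single agents and combinations were tested on spheroids built from tumor cells plus HUVEC and hMSC, at half-log dilutions starting at or near clinical Cmax, else 10 microM; final DMSO 0.25% (v/v).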

[1] = second compound 30 pM, first compound 0.0316 µM
[2] = second compound 30 pM, first compound 0.1 µM
[3] = second compound 30 pM, first compound 0.316 µM
[4] = second compound 30 pM, first compound 1 µM
[5] = second compound 30 pM, first compound 3.16 µM
[6] = second compound 30 pM, first compound 10 µM
[7] = second compound 94.9 pM, first compound 0.0316 µM
[8] = second compound 94.9 pM, first compound 0.1 µM
[9] = second compound 94.9 pM, first compound 0.316 µM
[10] = second compound 94.9 pM, first compound 1 µM
[11] = second compound 94.9 pM, first compound 3.16 µM
[12] = second compound 94.9 pM, first compound 10 µM
[13] = second compound 0.0003 µM, first compound 0.0316 µM
[14] = second compound 0.0003 µM, first compound 0.1 µM
[15] = second compound 0.0003 µM, first compound 0.316 µM
[16] = second compound 0.0003 µM, first compound 1 µM
[17] = second compound 0.0003 µM, first compound 3.16 µM
[18] = second compound 0.0003 µM, first compound 10 µM
[19] = second compound 0.000949 µM, first compound 0.0316 µM
[20] = second compound 0.000949 µM, first compound 0.1 µM
[21] = second compound 0.000949 µM, first compound 0.316 µM
[22] = second compound 0.000949 µM, first compound 1 µM
[23] = second compound 0.000949 µM, first compound 3.16 µM
[24] = second compound 0.000949 µM, first compound 10 µM
[25] = second compound 0.003 µM, first compound 0.0316 µM
[26] = second compound 0.003 µM, first compound 0.1 µM
[27] = second compound 0.003 µM, first compound 0.316 µM
[28] = second compound 0.003 µM, first compound 1 µM
[29] = second compound 0.003 µM, first compound 3.16 µM
[30] = second compound 0.003 µM, first compound 10 µM

## CC(C)n1c(=O)n(C)c2cnc3cc(F)c(-c4ccc(OCCCN5CCCCC5)nc4)cc3c21 + COc1cc2c(cc1O)CCNC21CSC2c3c(OC(C)=O)c(C)c4c(c3C(COC1=O)N1C(O)C3Cc5cc(C)c(OC)c(O)c5C(C21)N3C)OCO4
Second compound 30 pM
  IC50: > 10000 nM
Second compound 94.9 pM
  IC50: > 10000 nM
Second compound 0.0003 µM
  IC50: < 31.6 nM
Second compound 0.000949 µM
  IC50: < 31.6 nM
Second compound 0.003 µM
  IC50: < 31.6 nM
[1]
  viability, T/C: 94%
[2]
  viability, T/C: 93.1%
[3]
  viability, T/C: 95%
[4]
  viability, T/C: 95.5%
[5]
  viability, T/C: 93.7%
[6]
  viability, T/C: 86.7%
[7]
  viability, T/C: 66.3%
[8]
  viability, T/C: 58.5%
[9]
  viability, T/C: 49.3%
[10]
  viability, T/C: 53.5%
[11]
  viability, T/C: 55.2%
[12]
  viability, T/C: 46.8%
[13]
  viability, T/C: 10.7%
[14]
  viability, T/C: 9.04%
[15]
  viability, T/C: 11%
[16]
  viability, T/C: 9.85%
[17]
  viability, T/C: 12.3%
[18]
  viability, T/C: 9.65%
[19]
  viability, T/C: 2.08%
[20]
  viability, T/C: 1.93%
[21]
  viability, T/C: 1.77%
[22]
  viability, T/C: 1.8%
[23]
  viability, T/C: 2.69%
[24]
  viability, T/C: 2.47%
[25]
  viability, T/C: 0.9%
[26]
  viability, T/C: 0.67%
[27]
  viability, T/C: 0.58%
[28]
  viability, T/C: 0.77%
[29]
  viability, T/C: 0.63%
[30]
  viability, T/C: 1.09%

## COc1ccc([C@@H](O)c2cc(-c3ncnc4cc(N5CCOCC5)ccc34)c(F)cc2Cl)nn1 + COc1cc2c(cc1O)CCNC21CSC2c3c(OC(C)=O)c(C)c4c(c3C(COC1=O)N1C(O)C3Cc5cc(C)c(OC)c(O)c5C(C21)N3C)OCO4
Second compound 30 pM
  IC50: 2540 nM
Second compound 94.9 pM
  IC50: 778 nM
Second compound 0.0003 µM
  IC50: < 31.6 nM
Second compound 0.000949 µM
  IC50: < 31.6 nM
Second compound 0.003 µM
  IC50: < 31.6 nM
[1]
  viability, T/C: 104%
[2]
  viability, T/C: 102%
[3]
  viability, T/C: 99.5%
[4]
  viability, T/C: 92%
[5]
  viability, T/C: 40.2%
[6]
  viability, T/C: 8.98%
[7]
  viability, T/C: 93%
[8]
  viability, T/C: 87.6%
[9]
  viability, T/C: 78%
[10]
  viability, T/C: 41.5%
[11]
  viability, T/C: 16.1%
[12]
  viability, T/C: 5.87%
[13]
  viability, T/C: 20.7%
[14]
  viability, T/C: 20.1%
[15]
  viability, T/C: 15.1%
[16]
  viability, T/C: 7.3%
[17]
  viability, T/C: 2.15%
[18]
  viability, T/C: 2.31%
[19]
  viability, T/C: 2.44%
[20]
  viability, T/C: 2.76%
[21]
  viability, T/C: 3.13%
[22]
  viability, T/C: 1.08%
[23]
  viability, T/C: 0.81%
[24]
  viability, T/C: 0.98%
[25]
  viability, T/C: 0.93%
[26]
  viability, T/C: 0.67%
[27]
  viability, T/C: 0.53%
[28]
  viability, T/C: 0.63%
[29]
  viability, T/C: 0.36%
[30]
  viability, T/C: 0.33%

## O=C(c1cc(Cc2n[nH]c(=O)c3ccccc23)ccc1F)N1CCN(C(=O)C2CC2)CC1 + Cn1nnc2c(C(N)=O)ncn2c1=O
Second compound 1 µM
  IC50: 6950 nM
Second compound 3.16 µM
  IC50: 25400 nM
Second compound 10 µM
  IC50: 9730 nM
Second compound 31.6 µM
  IC50: 2700 nM
Second compound 100 µM
  IC50: < 94.9 nM
Second compound 1 µM, first compound 0.0949 µM
  viability, T/C: 85.1%
Second compound 1 µM, first compound 0.3 µM
  viability, T/C: 69.8%
Second compound 1 µM, first compound 0.949 µM
  viability, T/C: 77.8%
Second compound 1 µM, first compound 3 µM
  viability, T/C: 64.6%
Second compound 1 µM, first compound 9.49 µM
  viability, T/C: 32.2%
Second compound 1 µM, first compound 30 µM
  viability, T/C: 56.9%
Second compound 3.16 µM, first compound 0.0949 µM
  viability, T/C: 89.8%
Second compound 3.16 µM, first compound 0.3 µM
  viability, T/C: 82.4%
Second compound 3.16 µM, first compound 0.949 µM
  viability, T/C: 72.7%
Second compound 3.16 µM, first compound 3 µM
  viability, T/C: 61.5%
Second compound 3.16 µM, first compound 9.49 µM
  viability, T/C: 65.2%
Second compound 3.16 µM, first compound 30 µM
  viability, T/C: 45.1%
Second compound 10 µM, first compound 0.0949 µM
  viability, T/C: 79.2%
Second compound 10 µM, first compound 0.3 µM
  viability, T/C: 70.3%
Second compound 10 µM, first compound 0.949 µM
  viability, T/C: 64.6%
Second compound 10 µM, first compound 3 µM
  viability, T/C: 53.7%
Second compound 10 µM, first compound 9.49 µM
  viability, T/C: 60%
Second compound 10 µM, first compound 30 µM
  viability, T/C: 17.2%
Second compound 31.6 µM, first compound 0.0949 µM
  viability, T/C: 75.3%
Second compound 31.6 µM, first compound 0.3 µM
  viability, T/C: 69.4%
Second compound 31.6 µM, first compound 0.949 µM
  viability, T/C: 53.3%
Second compound 31.6 µM, first compound 3 µM
  viability, T/C: 55.7%
Second compound 31.6 µM, first compound 9.49 µM
  viability, T/C: 32.9%
Second compound 31.6 µM, first compound 30 µM
  viability, T/C: 15.8%
Second compound 100 µM, first compound 0.0949 µM
  viability, T/C: 54.7%
Second compound 100 µM, first compound 0.3 µM
  viability, T/C: 31.5%
Second compound 100 µM, first compound 0.949 µM
  viability, T/C: 29.6%
Second compound 100 µM, first compound 3 µM
  viability, T/C: 62.5%
Second compound 100 µM, first compound 9.49 µM
  viability, T/C: 18.8%
Second compound 100 µM, first compound 30 µM
  viability, T/C: 15.7%
